Laboratory results from patent publication US10227347B2, “Purinyl-N-hydroxyl pyrimidine formamide derivative, preparation methods and uses thereof” (Guizhou Bailing Group Pharmaceutical CO., LTD., priority 2015, dated 2019).
Like-named read-outs stand apart in the source and are kept apart here.

Key:
[1] = molecular target: T1, mTOR (Homo sapiens, UniProt P42345); test: mTOR activity inhibition (ULight-4E-BP1 peptide); assay type: biochemical; conditions: Table 1, graded
T1 construct: purchased Millipore 14-770
Experimental: mTOR protein is purchased from Millipore Company (Catalog No.: 14-770). The reaction buffer system comprises 50 mM HEPES, 10 mM MgCl2, 1 mM EGTA, 3 mM […], 0.01% Tween-20 (purchased from Chengdu Kelong Chemical Regent Factory) and 2 mM DTT. The pH value of the reaction buffer is 7.5. Preparing 10 μL reaction system in corresponding wells of the 384 well plate, which contains the compositions as: the compound with designed concentration (or blank control), mTOR protein (with the concentration of 2.5 nM), ULight-4E-BP1 (containing the 37th and the 46th threonine residues, Thr37/46) peptide (purchased from PE Company, Catalog No.: TRF0128-M) and ATP substrates (ULight-4E-BP1 peptide, with the concentration of 50 nM and ATP, with the concentration of […]). Mixing it evenly for incubation under ambient temperature for 1 h; adding 10 μL testing liquid containing EDTA (ethylenediaminetetraacetic acid) and Eu-anti-phosphorylation-4E-BP1 (Thr37/46) antibody (purchased from PE Company, Catalog No.: TRF0216-M) into the reaction wells (after the testing liquid is added, the concentration of EDTA is 8 mM and the concentration of Eu-phosphorylation-4E-BP1 antibody is 2 nM); mixing it evenly and incubating it for 1 h under ambient temperature, then measuring the fluorescence intensity with a microplate reader and analyzing the result data with the software GraphPad Prism.
(§1) Calculating the value of IC50 as per the formula: Y=background data+(top data−background data)/(1+10^((Log IC50−X)*rate of curve))
(§2) Where, Y refers to the inhibition ratio (%) and X refers to the compound concentration.

[2] = tested on: acetylated histone H3 (Ac-H3) in A2780s cells; test: Induction of histone H3 acetylation in A2780s cells (cytoblot); assay type: cell-based; conditions: Homo sapiens, 6 h treatment
Experimental: (§3) Specific operation: After the treatment, washing each well once with 50-100 μl of cold TBS buffer [with the composition as 20 mM Tris (trismetyl aminomethane), pH7.5] and fixing it with 100 μL of 4% pre-cooled paraformaldehyde at 4° C. for 1 h; after paraformaldehyde is washed off, adding 50 μL of pre-cooled methyl alcohol in each well and evenly spreading at 4° C. for 5 min; after methyl alcohol is washed off, washing it once with the TBS buffer containing 3% skim milk powder and adding 50 μL of antibody fluid, oscillating it slightly at 4° C. and incubating overnight. For determination of Ac—H3, the antibody fluid is prepared by diluting Ac—H3 antibody and horseradish peroxide coupled secondary antibody to a same system with the TBS buffer containing 3% skim milk powder (Ac—H3 antibody is purchased from Santa Cruz Company and diluted at a ratio of 1:100; horseradish peroxide coupled secondary antibody is purchased from Jackson Company and diluted at a ratio of 1:2000); for determination of acetylated Ac-α-tubulin, the antibody fluid is prepared by diluting Ac-α-tubulin antibody and horseradish peroxide coupled secondary antibody to a same system with the TBS buffer containing 3% skim milk powder (Ac-α-tubulin antibody is purchased from Santa Cruz Company and diluted at a ratio of 1:100; horseradish peroxide coupled secondary antibody is purchased from Jackson Company and diluted at a ratio of 1:2000).
(§4) Calculating the value of IC50 as per the formula: Y=background data+(top data−background data)/(1+10^((Log EC50−X)*rate of curve)) Where, Y refers to the activating rate (%) and X refers to the compound concentration.

[3] = tested on: acetylated Ac-α-tubulin in A2780s cells; test: Induction of α-tubulin acetylation in A2780s cells (cytoblot); assay type: cell-based; conditions: Homo sapiens, 6 h treatment, read-out: Ac-Tub EC50
Experimental: as §3, §4

[4] = tested on: PI3Kγ; conditions: read-out: inhibition value to activity of PI3Kγ; literature [1]; cited from earlier work
[5] = tested on: MV4-11 subcutaneous tumor; conditions: once per two days, 22 days
Source text: During drug administration, measuring the weight and gross tumor volume of the mice per 2 days and keeping a record. The calculation formula is as V=π/6×A^2×B, where, where, V=gross tumor volume (mm^3), A=tumor width (mm) and B=tumor length (mm). Observing and keeping a record for the survival condition of the tested animals. After drug discontinuance, killing the mice through cervical dislocation and peeling off their tumors as per the operation specification of animal experiment. Evaluating the inhibition capability of the compounds to tumor activities by calculating the tumor inhibitory rate with the formula as: tumor inhibitory rate=(1−tumor weight of treatment group/tumor weight of control group)×100%. Analyzing and comparing the difference between each treatment group and control group with the method of t-test. The grading of significance level of difference is: ***, P<0.001; **, P<0.01; *, P<0.05; no statistical significance (ns), P>0.05.

[6] = tested on: human colon cancer hct116 subcutaneous tumor; test: Subcutaneous tumor model, human colon cancer hct116; conditions: 50 mg/kg, once per 2 days, intraperitoneal
[7] = tested on: MM1S cells (multiple myeloma); test: Proliferation inhibition, MM1S (cck-8); assay type: cell-based; conditions: Homo sapiens, MM1.S; 96 h incubation
Source text: (§5) Calculating the value of IC50 as per the formula: Y=background data+(top data−background data)/(1+10^((Log IC50−X)*rate of curve)). Where, Y refers to the inhibition ratio (%) and X refers to the compound concentration.

[8] = molecular target: T2, PI3Kγ (Homo sapiens, UniProt P48736); test: PI3Kγ activity inhibition (ADP-Glo); assay type: biochemical; conditions: Table 4, graded
T2 construct: purchased Invitrogen PR8641C
T2 sequence (P48736 whole entry): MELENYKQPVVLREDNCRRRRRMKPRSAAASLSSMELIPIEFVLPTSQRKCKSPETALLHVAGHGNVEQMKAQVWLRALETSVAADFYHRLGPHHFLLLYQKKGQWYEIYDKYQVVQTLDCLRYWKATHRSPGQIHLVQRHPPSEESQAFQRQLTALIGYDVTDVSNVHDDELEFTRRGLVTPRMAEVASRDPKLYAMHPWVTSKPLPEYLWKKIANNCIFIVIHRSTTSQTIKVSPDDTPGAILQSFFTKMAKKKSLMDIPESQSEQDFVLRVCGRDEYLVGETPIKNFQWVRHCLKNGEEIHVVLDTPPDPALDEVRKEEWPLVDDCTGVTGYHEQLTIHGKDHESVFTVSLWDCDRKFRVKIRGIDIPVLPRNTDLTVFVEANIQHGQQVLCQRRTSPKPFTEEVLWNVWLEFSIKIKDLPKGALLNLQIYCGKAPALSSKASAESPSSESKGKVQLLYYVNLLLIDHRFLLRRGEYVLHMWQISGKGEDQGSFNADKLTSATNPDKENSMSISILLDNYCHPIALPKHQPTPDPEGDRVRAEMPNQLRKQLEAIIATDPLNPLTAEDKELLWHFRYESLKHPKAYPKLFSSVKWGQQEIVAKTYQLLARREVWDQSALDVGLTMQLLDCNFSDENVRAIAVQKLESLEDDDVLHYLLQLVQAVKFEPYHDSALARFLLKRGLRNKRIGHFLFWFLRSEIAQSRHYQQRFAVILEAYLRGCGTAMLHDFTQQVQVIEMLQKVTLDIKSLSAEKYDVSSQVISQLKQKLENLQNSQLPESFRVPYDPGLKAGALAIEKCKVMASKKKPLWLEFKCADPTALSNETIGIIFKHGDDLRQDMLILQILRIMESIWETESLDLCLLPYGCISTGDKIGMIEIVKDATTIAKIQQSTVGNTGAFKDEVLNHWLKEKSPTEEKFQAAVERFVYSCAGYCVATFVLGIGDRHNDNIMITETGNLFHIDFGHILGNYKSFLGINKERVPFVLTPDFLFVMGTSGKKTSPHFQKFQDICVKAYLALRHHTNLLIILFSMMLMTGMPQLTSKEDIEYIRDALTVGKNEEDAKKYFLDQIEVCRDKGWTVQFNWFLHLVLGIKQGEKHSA
Experimental: (§6) Detecting the inhibition capability of the compound to PI3Kβ and PI3Kγ activities with ADP-Glo (purchased from Promege Company; Catalog No.: v9102/3). […] The reaction system also comprises substrates as PIP2 and ATP. The reaction buffer system comprises 50 mM HEPES, 3 mM MgCl2, 1 mM EGTA, 100 mM NaCl, 0.03% CHAPS and 2 mM DTT. The pH value of the reaction buffer is 7.5. […] Mixing the system evenly for incubation under ambient temperature for 1 h; getting a new 384 well plate and transferring 5 μL reaction liquid from the each well of original 384 well plate to the corresponding wells of the new 384 well plate; adding 5 μL ADP-Glo which has been preheated to ambient temperature into each new reaction well to terminate the reaction; oscillating it slowly in dark place for 40 min's incubation after it is mixed evenly; adding 10 μL testing liquid in each reaction well, oscillating it for 1 min to mix evenly and incubating it for 1 h, then measuring the fluorescence intensity with a microplate reader and analyzing the result data with the software GraphPad Prism.
as §1, §2

[9] = tested on: SUDHL-4 cells (B-cell lymphoma); test: Proliferation inhibition, SUDHL-4 (cck-8); assay type: cell-based; conditions: Homo sapiens, SU-DHL-4; 96 h incubation
Source text: as §5

[10] = tested on: HBL-1 cells (B-cell lymphoma); test: Proliferation inhibition, HBL-1 (cck-8); assay type: cell-based; conditions: Homo sapiens, HBL1; 96 h incubation
Source text: as §5

[11] = tested on: RPMI-8226 cells (multiple myeloma); test: Proliferation inhibition, RPMI-8226 (cck-8); assay type: cell-based; conditions: Homo sapiens, 96 h incubation
Source text: as §5

[12] = tested on: A2780s cells (ovarian cancer); test: Cell proliferation inhibition, A2780s (MTT); assay type: cell-based; conditions: Homo sapiens, 96 h incubation, read-out: Proliferation IC50, Ovarian cancer A2780s
Summary of the method: (§7)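 Cells seeded at 2000-3000/well; adherent lines dosed after attachment, then 96 h incubation with compound. Viability read by MTT for solid-tumour lines (HCT116, A2780s) and CCK-8 for MV4-11; IC50 from four-parameter logistic fit of inhibition ratio versus concentration.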

[13] = tested on: OCI-LY1 cells (B-cell lymphoma); test: Proliferation inhibition, OCI-LY1 (cck-8); assay type: cell-based; conditions: Homo sapiens, 96 h incubation
Source text: as §5

[14] = molecular target: T3, PI3Kα (Homo sapiens, UniProt P42336); test: PI3Kα activity inhibition (Kinase-Glo); assay type: biochemical; conditions: read-out: PI3Kα IC50
T3 construct: purchased Invitrogen PV4788
T3 sequence (P42336 whole entry, species assumed): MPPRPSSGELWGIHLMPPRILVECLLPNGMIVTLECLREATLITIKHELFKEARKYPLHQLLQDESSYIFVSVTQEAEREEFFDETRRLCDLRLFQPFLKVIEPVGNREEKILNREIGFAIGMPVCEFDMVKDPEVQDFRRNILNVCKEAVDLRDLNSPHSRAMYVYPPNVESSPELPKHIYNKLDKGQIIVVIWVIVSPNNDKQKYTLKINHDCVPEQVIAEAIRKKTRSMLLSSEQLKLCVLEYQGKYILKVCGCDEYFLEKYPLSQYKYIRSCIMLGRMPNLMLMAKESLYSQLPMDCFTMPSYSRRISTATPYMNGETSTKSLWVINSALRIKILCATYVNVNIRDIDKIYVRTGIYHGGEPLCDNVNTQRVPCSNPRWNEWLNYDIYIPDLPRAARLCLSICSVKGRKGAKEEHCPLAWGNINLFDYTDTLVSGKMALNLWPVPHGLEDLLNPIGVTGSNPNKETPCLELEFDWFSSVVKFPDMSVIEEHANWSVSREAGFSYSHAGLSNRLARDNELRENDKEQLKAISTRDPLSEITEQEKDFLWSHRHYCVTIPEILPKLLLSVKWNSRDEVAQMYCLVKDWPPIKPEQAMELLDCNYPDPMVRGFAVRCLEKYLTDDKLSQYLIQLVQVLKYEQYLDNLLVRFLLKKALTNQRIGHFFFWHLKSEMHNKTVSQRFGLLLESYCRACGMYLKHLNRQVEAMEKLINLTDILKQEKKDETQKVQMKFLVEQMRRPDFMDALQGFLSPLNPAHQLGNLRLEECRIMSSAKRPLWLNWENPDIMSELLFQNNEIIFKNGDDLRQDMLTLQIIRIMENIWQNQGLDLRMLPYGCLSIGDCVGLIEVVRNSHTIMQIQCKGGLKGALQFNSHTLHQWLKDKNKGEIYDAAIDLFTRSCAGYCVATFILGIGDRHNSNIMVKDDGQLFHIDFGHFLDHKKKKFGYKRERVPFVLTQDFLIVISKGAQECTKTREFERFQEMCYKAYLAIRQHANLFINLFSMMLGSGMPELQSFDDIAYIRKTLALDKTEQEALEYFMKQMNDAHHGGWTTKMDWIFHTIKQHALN
T3 sequence (P27986 whole entry partner, species assumed): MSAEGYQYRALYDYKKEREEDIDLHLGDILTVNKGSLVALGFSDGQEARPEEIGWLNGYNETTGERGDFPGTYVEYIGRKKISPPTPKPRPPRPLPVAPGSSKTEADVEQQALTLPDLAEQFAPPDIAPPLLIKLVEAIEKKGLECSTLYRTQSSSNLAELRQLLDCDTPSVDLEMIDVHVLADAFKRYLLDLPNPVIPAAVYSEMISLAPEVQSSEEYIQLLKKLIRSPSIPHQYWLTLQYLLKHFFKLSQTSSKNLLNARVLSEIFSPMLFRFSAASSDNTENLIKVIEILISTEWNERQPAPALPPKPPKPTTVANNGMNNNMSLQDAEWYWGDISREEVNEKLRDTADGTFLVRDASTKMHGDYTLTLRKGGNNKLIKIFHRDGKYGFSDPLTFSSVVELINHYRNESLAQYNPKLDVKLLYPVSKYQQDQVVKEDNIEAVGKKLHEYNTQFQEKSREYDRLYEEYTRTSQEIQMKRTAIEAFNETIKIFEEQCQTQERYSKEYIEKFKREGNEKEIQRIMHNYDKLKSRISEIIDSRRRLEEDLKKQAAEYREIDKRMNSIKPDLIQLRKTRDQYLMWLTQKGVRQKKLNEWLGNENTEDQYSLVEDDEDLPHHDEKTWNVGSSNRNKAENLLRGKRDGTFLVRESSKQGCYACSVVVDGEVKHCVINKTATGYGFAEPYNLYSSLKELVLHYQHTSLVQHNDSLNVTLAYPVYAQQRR
Summary of the method: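 Kinase-Glo luminescence read-out of remaining ATP after PI3K reaction with PIP2 and ATP substrates in 50 mM HEPES pH 7.5, 3 mM MgCl2, 1 mM EGTA, 100 mM NaCl, 0.03% CHAPS, 2 mM DTT. Incubated at ambient temperature, 1 h for PI3Kα, 2 h for PI3Kδ. IC50 from four-parameter fit of % inhibition versus concentration.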

[15] = molecular target: T4, PI3Kβ (Homo sapiens, UniProt P42338); test: PI3Kβ activity inhibition (ADP-Glo); assay type: biochemical; conditions: Table 4, graded
T4 construct: purchased Millipore 14-603-K
T4 sequence (P42338 whole entry, species assumed): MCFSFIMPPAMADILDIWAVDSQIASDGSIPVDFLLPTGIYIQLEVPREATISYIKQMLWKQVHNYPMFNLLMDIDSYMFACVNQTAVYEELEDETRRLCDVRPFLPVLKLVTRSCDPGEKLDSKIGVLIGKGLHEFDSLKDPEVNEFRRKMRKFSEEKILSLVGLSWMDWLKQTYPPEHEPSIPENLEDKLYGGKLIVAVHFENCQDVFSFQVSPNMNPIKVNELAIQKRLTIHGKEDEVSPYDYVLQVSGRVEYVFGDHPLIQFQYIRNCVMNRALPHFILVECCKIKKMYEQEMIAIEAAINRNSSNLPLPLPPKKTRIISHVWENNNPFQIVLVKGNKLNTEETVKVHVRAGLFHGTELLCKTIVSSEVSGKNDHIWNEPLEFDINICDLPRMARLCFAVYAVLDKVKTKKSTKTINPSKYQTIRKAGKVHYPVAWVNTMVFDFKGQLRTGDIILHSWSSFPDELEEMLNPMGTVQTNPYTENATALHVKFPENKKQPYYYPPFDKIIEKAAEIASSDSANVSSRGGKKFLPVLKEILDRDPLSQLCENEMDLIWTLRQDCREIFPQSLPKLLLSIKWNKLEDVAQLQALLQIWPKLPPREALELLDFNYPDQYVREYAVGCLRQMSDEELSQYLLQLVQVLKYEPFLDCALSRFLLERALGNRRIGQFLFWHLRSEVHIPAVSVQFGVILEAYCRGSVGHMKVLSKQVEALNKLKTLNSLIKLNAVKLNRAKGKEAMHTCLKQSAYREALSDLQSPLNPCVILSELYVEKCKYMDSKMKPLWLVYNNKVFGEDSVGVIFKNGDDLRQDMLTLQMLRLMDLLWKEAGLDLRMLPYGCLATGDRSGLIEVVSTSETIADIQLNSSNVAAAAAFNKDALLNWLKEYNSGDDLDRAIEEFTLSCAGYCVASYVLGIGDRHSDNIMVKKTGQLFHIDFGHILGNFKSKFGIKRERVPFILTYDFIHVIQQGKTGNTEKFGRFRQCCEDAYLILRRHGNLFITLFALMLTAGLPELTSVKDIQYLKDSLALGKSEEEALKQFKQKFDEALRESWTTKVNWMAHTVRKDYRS
T4 sequence (P27986 whole entry partner, species assumed): as the sequence (P27986 whole entry partner, species assumed) above
Experimental: as §6, §1, §2

[16] = tested on: hct116 cells (colon cancer); test: Cell proliferation inhibition, hct116 (MTT); assay type: cell-based; conditions: Homo sapiens, HCT-116; 96 h incubation; read-out: Proliferation IC50, Colon cancer hct116
Summary of the method: as §7

[17] = tested on: Ramos cells (B-cell lymphoma); test: Proliferation inhibition, Ramos (cck-8); assay type: cell-based; conditions: Homo sapiens, 96 h incubation
Source text: as §5

[18] = molecular target: T5, PI3Kδ (Homo sapiens, UniProt O00329); test: PI3Kδ activity inhibition (Kinase-Glo); assay type: biochemical; conditions: Table 4, graded
T5 construct: purchased Millipore 14-604-K
T5 sequence (O00329 whole entry): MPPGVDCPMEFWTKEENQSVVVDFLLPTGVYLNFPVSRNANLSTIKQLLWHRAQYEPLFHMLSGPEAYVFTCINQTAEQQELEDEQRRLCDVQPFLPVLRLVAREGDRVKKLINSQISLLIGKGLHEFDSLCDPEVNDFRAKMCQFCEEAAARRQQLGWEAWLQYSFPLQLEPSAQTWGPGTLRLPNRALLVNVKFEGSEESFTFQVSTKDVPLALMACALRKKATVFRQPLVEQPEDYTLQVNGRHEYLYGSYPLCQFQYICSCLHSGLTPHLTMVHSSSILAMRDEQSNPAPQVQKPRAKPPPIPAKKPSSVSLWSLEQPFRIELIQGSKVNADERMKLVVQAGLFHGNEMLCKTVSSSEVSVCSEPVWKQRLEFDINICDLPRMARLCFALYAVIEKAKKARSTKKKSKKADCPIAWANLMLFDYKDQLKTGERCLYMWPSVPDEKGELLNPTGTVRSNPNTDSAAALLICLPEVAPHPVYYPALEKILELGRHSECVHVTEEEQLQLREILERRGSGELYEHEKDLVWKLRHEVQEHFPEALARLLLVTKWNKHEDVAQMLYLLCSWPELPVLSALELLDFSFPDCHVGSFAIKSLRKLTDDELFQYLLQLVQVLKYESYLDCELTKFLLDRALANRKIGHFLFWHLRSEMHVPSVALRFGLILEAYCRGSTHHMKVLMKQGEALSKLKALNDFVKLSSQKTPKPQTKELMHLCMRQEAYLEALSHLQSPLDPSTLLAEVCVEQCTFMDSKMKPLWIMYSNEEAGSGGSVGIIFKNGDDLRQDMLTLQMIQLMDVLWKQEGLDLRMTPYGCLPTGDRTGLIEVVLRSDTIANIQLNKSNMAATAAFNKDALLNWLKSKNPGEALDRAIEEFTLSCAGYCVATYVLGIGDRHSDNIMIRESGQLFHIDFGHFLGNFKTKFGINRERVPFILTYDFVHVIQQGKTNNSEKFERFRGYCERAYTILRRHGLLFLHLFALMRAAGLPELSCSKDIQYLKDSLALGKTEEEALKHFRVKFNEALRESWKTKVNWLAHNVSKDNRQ
T5 sequence (P27986 whole entry partner): as the sequence (P27986 whole entry partner, species assumed) above
Experimental: Detecting the inhibition capability of the compound to PI3Kα and PI3Kδ activities with Kinase-Glo (purchased from Promege Company; Catalog No.: V3771). […] The reaction system also comprises substrates as PIP2 (4, 5-diphosphoinositide, purchased from Life Technologies Company) and ATP (triphosadenine, purchased from Sigma Company). The reaction buffer system comprises 50 mM HEPES (4-hydroxyethylpiperazine ethane sulfonic acid), 3 mM MgCl2, 1 mM EGTA (ethylene glycol bis(2-amino ethylether)quadrol), 100 mM NaCl, 0.03% CHAPS (3-[3-(cholamidopropyl)dimethylamino]-1-propanesulfonic acid), 2 mM DTT (dithiothreitol). The pH value of the reaction buffer is 7.5. […] Mixing the system evenly for incubation under ambient temperature (for 1 h in PI3Kα test and for 2 h in PI3Kδ test). After incubation, adding 10 μL Kinase-Glo which has been preheated to ambient temperature into each reaction well to terminate the reaction; shaking it in dark place for 15 min after it is mixed evenly, then measuring the fluorescence intensity with a microplate reader and analyzing the result data with the software GraphPad Prism.
as §1, §2

[19] = tested on: MV4-11 cells (acute myeloid leukemia); test: Cell proliferation inhibition, MV4-11 (cck-8); assay type: cell-based; conditions: Homo sapiens, 96 h incubation, read-out: Proliferation IC50, Acute myeloid leukemia MV4-11
Summary of the method: as §7

[20] = tested on: U266 cells (multiple myeloma); test: Proliferation inhibition, U266 (cck-8); assay type: cell-based; conditions: Homo sapiens, U-266; 96 h incubation
Source text: as §5

**Q.** For COc1ccc(-c2nc(N3CCOCC3)c3sc(CN(C)c4ncc(C(=O)NO)cn4)cc3n2)cn1 [CUDC907, reference compound], which IC50 [1] is on record?
**A.** 1000 to 10000 nM

**Q.** And the EC50 [2]?
**A.** 100 to 200 nM

**Q.** What about the EC50 [3] of the same compound?
**A.** > 200 nM

**Q.** Which IC50 [4] does the source give for COc1ccc(-c2nc(N3CCOCC3)c3sc(CN(C)c4ncc(C(=O)NO)cn4)cc3n2)cn1 [CUDC-907] here?
**A.** 39 nM

**Q.** With O=C(CCCCCCC(=O)Nc1ccccc1)NO [SAHA, vorinostat, reference compound] as the compound, how does the “Final survival condition (survived individuals/total individuals)” value ([5]; 50 mg/kg i.p.) read?
**A.** 6/6

**Q.** What about the Death [6] of the same compound?
**A.** 0/6

**Q.** Which results are given for CN(Cc1nc2c(N3CCOCC3)nc(-c3ccncc3)nc2n1C)c1ncc(C(=O)NO)cn1 [CLJ-8, 2-(((2-(4-pyridyl)-9-methyl-6-morpholine-9H-purine-8-yl))methyl(methyl)amino)-N-hydroxyl pyrimidine-5-formamide]?
**A.** IC50 [7]: 0.1 to 1 nM; IC50 [8]: > 10000 nM; IC50 [9]: 1 to 10 nM; IC50 [10]: 1 to 10 nM; IC50 [11]: 1 to 10 nM; IC50 [12]: 0.1 to 10 nM; IC50 [13]: 1 to 10 nM; Final survival condition (survived individuals/total individuals) ([5]; 10 mg/kg i.v.): 5/6; IC50 ([14]; Table 1, graded): 1000 to 10000 nM; IC50 ([14]; Table 4, graded): 1000 to 10000 nM; IC50 [15]: > 10000 nM; IC50 [16]: 10 to 100 nM; IC50 [17]: 0.1 to 1 nM; EC50 [2]: 100 to 200 nM; IC50 [18]: > 10000 nM; EC50 [3]: 100 to 200 nM; IC50 [19]: 0.1 to 10 nM; IC50 [20]: 1 to 10 nM
